The text below walks through data of publication PMC9561151, “Structural studies of the phosphoribosyltransferase involved in cobamide biosynthesis in methanogenic archaea and cyanobacteria” (Scientific Reports, 2022).

Data set [1] addresses T1, MjCobT (Methanocaldococcus jannaschii, UniProt Q58993).
T1 construct: gene MJ1598; expressed in E. coli BL21-CodonPlus from pTEV5; N-terminal His6 tag cut with rTEV; Met 1 to Tyr 348 modelled; dimer
Kind of data set: turnover in crystal, product seen by X-ray. The format is biochemical. As to conditions: free base not seen in the structure.

Data set [2] concerns the target T1, MjCobT. Briefly: X-ray crystal structure of complex, […] Å. The format is binding.
The target in data set [3] is T1, MjCobT. Kind of data set: X-ray crystal structure of complex, […] Å. The format is binding. As to conditions: formed in the crystal from NaMN and adenine; active site with nicotinic acid.
Data set [4] deals with the molecule itself. Kind of data set: crystal structure; three crystal forms of MjCobT grown at room temperature: apo (P41212, 1 subunit per asymmetric unit), with NaMN and α-RP + nicotinic acid (P21, 2 subunits), with α-AMP + nicotinic acid (P21, 2 subunits); molecular replacement with 3L0Z.

Turning to `Cc1cc2nc[nH]c2cc1C` [DMB], the “turnover in crystal, product seen by X-ray” value on MjCobT [1] (1 mM DMB in crystallization, NaMN soak overnight) was “During that time the enzyme catalyzed a transferase reaction”.
Turning to `O=C([O-])c1ccc[n+]([C@@H]2O[C@H](COP(=O)(O)O)[C@@H](O)[C@H]2O)c1` [NaMN], at MjCobT [2] (crystals grown with DMB, soaked overnight in 1 mM NaMN, NaMN in active site of chain A), the “X-ray crystal structure of complex, 2.3 Å” value is “NaMN lies at the base of the active site for chain A”.
Turning to `Nc1ncnc2[nH]cnc12` [adenine], the “turnover in crystal, product seen by X-ray” value at MjCobT [1] (1 mM adenine and 1 mM NaMN soak, pH 8.5) is “the reaction product was prepared in situ by soaking the crystals in NaMN and adenine”.
As to `Nc1ncnc2ncn([C@H]3O[C@H](COP(=O)(O)O)[C@@H](O)[C@H]3O)c12` [α-AMP], the “X-ray crystal structure of complex, 1.4 Å” value on MjCobT [3] is “the crystals were highly ordered and the position of α-AMP is unequivocal”.
As for `Cc1cc2ncn([C@H]3O[C@H](COP(=O)(O)O)[C@@H](O)[C@H]3O)c2cc1C` [α-RP], the “X-ray crystal structure of complex, 2.3 Å” value on MjCobT [2] (formed in the crystal from NaMN and DMB, active site of chain B with nicotinic acid, occupancy below 1.0) is “One subunit contains NaMN, whereas the second includes α-RP and nicotinic acid”.

B1: Methanocaldococcus jannaschii nicotinate mononucleotide:base phosphoribosyltransferase (MjCobT) (enzyme)
chain: MSIIAINENGFLDKIKGRNPLFTCVISSIETTLSIPISGVHRDVIKYTPSADVELVFYGKSLTLKTPPIDATGSPTPATITRACVELKNIKNLHIDAGAFVKPKIPFIEIDEKPTGRIEEGKAMNNSKELYMKGYLLGKNLDAELLIVGESVPGGTTTALGVLLGLGYDAEGKVSSGSINNPHELKIKVVREGLKKAGINEKSSVFDVLNAVGDKMMPVVAGLAISFAERNKPVILAGGTQMSAVLAVIKEINKKVLDKNLIAIGTTEFVLNDKKGDLKGIVEQIGNVPVLASKFYFEKAKIEGLKNYCKGSVKEGVGAGGIAVYSIVNDLEPTKIREFIENKFYEWYKE
notes: CobT (NaMN:base phosphoribosyltransferase) of Methanocaldococcus jannaschii; the modelled chain runs from Met 1 to Tyr 348; also called PRTase from Methanocaldococcus jannaschii; source: E. coli BL21-CodonPlus, purified (80 °C heat step, Ni-NTA, rTEV cleavage, second Ni-NTA); not shown: His6, N-terminal, cleaved
As to B1, in data set [4], the stoichiometry N (usually the number of molecules, sites or subunits per partner or assembly) turned out to be 2.
